Measured values published in patent US10626126B2, “Compounds” (Pulmocide Limited, priority 2016, dated 2020).

What was measured:
Assay type in all cases: cell-based
RSV B Washington strain = experiment: RSV B induced CPE in HEp2 cells; conditions: human respiratory syncytial virus; for IC50: HEp-2, 144 h, 6 days; for inhibition at 0.1 µg/mL: HEp-2, at 0.1 μg/mL; for inhibition at 1 µg/mL: HEp-2, at 1 μg/mL
Experimental: (§1) HEp2 cells were seeded (10^3/well/50 μL) in 384-well plates (Catalogue number 353962, BD Falcon, Oxford, UK) in 5% FBS-DMEM (containing 2 mM L-glutamine and 1 mM sodium pyruvate) one day before infection. […] Simultaneously, test compounds (0.5 μL DMSO solution) were added to 100 μL of HEp2 cell culture with virus solution to provide a final DMSO solution of 0.5%. […] Sigma-Aldrich, Dorset, UK) was added to each well and the plate incubated for a further 6 hr (37° C./5% CO2). The fluorescence of each well [545 nm (excitation)/590 nm (emission)] was determined using a multi-scanner (Clariostar: BMG, Buckinghamshire, UK). The percentage inhibition for each well was calculated and the IC50, IC75 and IC90 values were calculated from the concentration-response curve generated for each test compound.

RSV A2 strain = experiment: RSV A2 induced CPE in HEp2 cells; conditions: human respiratory syncytial virus; for IC50: HEp-2, 120 h, 5 days; for inhibition at 0.01 µg/mL: HEp-2, at 0.01 μg/mL
Experimental: as §1

[1] = Cell viability: resazurin assay; conditions: human, HEp2 cells
Experimental: HEp2 cells were seeded in 384-well plates (10^3/well/50 μL; BD Falcon Ref 353962) in FBS DMEM (5%, containing 2 mM L-glutamine and 1 mM sodium pyruvate) one day before experimentation. Serum-free DMEM (50 μL) was added to test wells, while for control wells the media was removed and sterile water (100 μL) added. Test compounds (0.5 μL DMSO solution) were added to give a final DMSO concentration of 0.5%. HEp2 cells were incubated with each test compound for 5 days (37° C./5% CO2 in 2.5% FBS) and then resazurin stock solution (5 μL; 0.03%) was added to each well and the plate incubated for a further 6 hr (37° C./5% CO2). The fluorescence of each well at 545 nm (excitation) and 590 nm (emission) was determined using a multi-scanner (Clariostar: BMG Labtech). The percentage loss of cell viability was calculated for each well relative to vehicle (0.5% DMSO) treatment. Note that any apparent increase in cell viability associated with test compound treatment relative to vehicle is consequently tabulated as a negative percentage. Where appropriate, a CC50 value was calculated from the concentration-response curve generated from the concentration-response curve for each test compound.

IC50 (RSV B Washington strain) [nM]	IC50 (RSV A2 strain) [nM]	SMILES	inhibition at 0.1 µg/mL (RSV B Washington strain) [%]	inhibition at 0.01 µg/mL (RSV A2 strain) [%]	CC50 at 5 days [1] [nM]	inhibition at 1 µg/mL (RSV B Washington strain) [%]
14	0.15	[2H]c1c([2H])c(C(=O)N2CCc3cc(C(=O)Nc4c(F)cccc4F)sc3-c3sccc32)c([2H])c([2H])c1NC(=O)c1cc(C)cnc1N1CC2(CCOCC2)C1 [Example 3, N-(2,6-difluorophenyl)-4-(4-(5-methyl-2-(7-oxa-2-azaspiro[3.5]nonan-2-yl)nicotinamido)benz-y-2,3,5,6-d4)-5,6-dihydro-4H-dithieno[3,2-b:2′,3′-d]azepine-8-carboxamide]	100	95	> 13700	–
19	0.17	Cc1cnc(N2CC3(CCOCC3)C2)c(C(=O)Nc2ccc(C(=O)N3CCc4cc(C(=O)Nc5c(F)cc(F)cc5F)sc4-c4sccc43)cc2)c1 [Example 17, 4-(4-(5-methyl-2-(7-oxa-2-azaspiro[3.5]nonan-2-yl)nicotinamido)benzoyl)-N-(2,4,6-trifluorophenyl)-5,6-dihydro-4H-dithieno[3,2-b:2′,3′-d]azepine-8-carboxamide]	100	92	> 13400	–
29	0.18	Cc1cnc(N2CC3(CCOCC3)C2)c(C(=O)Nc2ccc(C(=O)N3CCc4cc(C(=O)Nc5c(F)cccc5Cl)sc4-c4sccc43)c(F)c2)c1 [Example 19, N-(2-chloro-6-fluorophenyl)-4-(2-fluoro-4-(5-methyl-2-(7-oxa-2-azaspiro[3.5]nonan-2-yl)nicotinamido)benzoyl)-5,6-dihydro-4H-dithieno[3,2-b:2′,3′-d]azepine-8-carboxamide]	–	93	> 13200	86
1.2	0.14	Cc1cnc(N2CC3(CCOCC3)C2)c(C(=O)Nc2ccc(C(=O)N3CCc4cc(C(=O)Nc5c(Cl)cccc5Cl)sc4-c4sccc43)cc2)c1 [Example 13, N-(2,6-dichlorophenyl)-4-(4-(5-methyl-2-(7-oxa-2-azaspiro [3.5]nonan-2-yl)nicotinamido)benzoyl)-5,6-dihydro-4H-dithieno[3,2-b:2′,3′-d]azepine-8-carboxamide]	–	77	> 13200	80
1050	10.8	O=C(Nc1c(F)cccc1F)c1cc2c(s1)-c1sccc1N(C(=O)c1ccc(NC(=O)c3cccnc3N3CC4(COC4)C3)cc1)CC2 [Example 31, 4-(4-(2-(2-oxa-6-azaspiro[3.3]heptan-6-yl)nicotin-amido)benzoyl)-N-(2,6-difluorophenyl)-5,6-dihydro-4H-dithieno[3,2-b:2′,3′-d]azepine-8-carboxamide]	–	62	> 14600	57
> 1350	1.4	O=C(Nc1c(F)cccc1F)c1cc2c(s1)-c1sccc1N(C(=O)c1ccc(NC(=O)c3cccnc3N3CCC4(CCOCC4)CC3)cc1)CC2 [Example 33, 4-(4-(2-(3-oxa-9-azaspiro[5.5]undecan-9-yl)nicotin amido)benzoyl)-N-(2,6-difluorophenyl)-5,6-dihydro-4H-dithieno[3,2-b:2′,3′-d]azepine-8-carboxamide]	–	100	> 13500	23
8.3	0.21	Cc1cnc(N2CC3(CCOCC3)C2)c(C(=O)Nc2ccc(C(=O)N3CCc4cc(C(=O)Nc5c(C)cccc5F)sc4-c4sccc43)cc2)c1 [Example 11, N-(2-fluoro-6-methylphenyl)-4-(4-(5-methyl-2-(7-oxa-2-azaspiro[3.5]nonan-2-yl)nicotinamido)benzoyl)-5,6-dihydro-4H-dithieno[3,2-b:2′,3′-d]azepine-8-carboxamide]	100	100	> 13900	–
490	3.6	O=C(Nc1c(F)cccc1F)c1cc2c(s1)-c1sccc1N(C(=O)c1ccc(NC(=O)c3cccnc3N3CCC4(CC3)COC4)cc1)CC2 [Example 29, 4-(4-(2-(2-oxa-7-azaspiro[3.5]nonan-7-yl)nicotinamido)benzoyl)-N-(2,6-difluorophenyl)-5,6-dihydro-4H-dithieno [3,2-b:2′,3′-d]azepine-8-carboxamide]	–	100	> 14000	51
15	0.48	O=C(Nc1c(F)cccc1F)c1cc2c(s1)-c1sccc1N(C(=O)c1ccc(NC(=O)c3cc4sccc4nc3N3CC4(CCOCC4)C3)cc1F)CC2 [Example 28, 4-(4-(5-(7-oxa-2-azaspiro[3.5]nonan-2-yl)thieno[3,2-b]pyridine-6-carboxamido)-2-fluorobenzoyl)-N-(2,6-difluorophenyl)-5,6-dihydro-4H-dithieno[3,2-b:2′,3′-d] azepine-8-carboxamide]	92	89	> 12700	–
54	0.18	Cc1cnc(N2CC3(CCOCC3)C2)c(C(=O)Nc2ccc(C(=O)N3CCc4cc(C(=O)Nc5ccccc5F)sc4-c4sccc43)cc2)c1 [Example 9, N-(2-fluorophenyl)-4-(4-(5-methyl-2-(7-oxa-2-azaspiro[3.5]nonan-2-yl)nicotinamido)benzoyl)-5,6-dihydro-4H-dithieno[3,2-b:2′,3′-d]azepine-8-carboxamide]	100	100	> 14100	–
70	0.67	Cc1cc(C(=O)Nc2ccc(C(=O)N3CCc4cc(C(=O)Nc5c(F)cccc5F)sc4-c4sccc43)c(F)c2)c(N2CC3(CCOCC3)C2)nc1C [Example 23, N-(2,6-difluorophenyl)-4-(4-(5,6-dimethyl-2-(7-oxa-2-azaspiro[3.5]nonan-2-yl)nicotinamido)-2-fluorobenzoyl)-5,6-dihydro-4H-dithieno[3,2-b:2′,3′-d]azepine-8-carboxamide]	–	96	> 13200	96
137	0.68	Cc1cnc(N2CC3(CCOCC3)C2)c(C(=O)Nc2ccc(C(=O)N3CCc4cc(C(=O)Nc5ccccc5)sc4-c4sccc43)cc2)c1 [Example 8, 4-(4-(5-methyl-2-(7-oxa-2-azaspiro[3.5]nonan-2-yl)nicotinamido)benzoyl)-N-phenyl-5,6-dihydro-4H-dithieno [3,2-b:2′,3′-d]azepine-8-carboxamide]	–	100	> 14500	97
17	1	Cc1cccc(F)c1NC(=O)c1cc2c(s1)-c1sccc1N(C(=O)c1ccc(NC(=O)c3cc4c(nc3N3CC5(CCOCC5)C3)CCOC4)cc1)CC2 [Example 26, N-(4-(8-((2-fluoro-6-methylphenyl)carbamoyl)-5,6-dihydro-4H-dithieno[3,2-b:2′,3′-d]azepine-4-carbonyl)phenyl)-2-(7-oxa-2-azaspiro[3.5]nonan-2-yl)-7,8-dihydro-5H-pyrano[4,3-b]pyridine-3-carboxamide]	93	98	> 13100	–
